Series [1] deals with Ba/F3 containing BCR-ABL mutation H396R (Homo sapiens, UniProt P00519, H396R, cells depend on it). The conditions noted are these: read-out: Antiproliferation Effect (IC50). From the text:
(§1) Ba/F3 cells stably expressing BCR-ABL (F359V, H396R, E255K, Y253H, T315I, F317L) mutations were provided by the Institute of Life and Health, Guangzhou Academy of Sciences.
(§2) 1. The mutated Ba/F3 cell line stably expressing BCR-ABL (E255V, T315M, Y253H/E255V, Y253H/T315I, Y253H/F359V, T315I/F317L, F317L/F359V) mutation was constructed by electro-transformation method, the Ba/F3 cell line stably expressing the BCR-ABL (E255V/T315I, T315I/F359V) mutation was constructed by lentivirus infection method.
(§3) 2. Effect of drugs on the proliferation of BaF3 cells stably transfected with BCR-ABL single mutation or complex mutation by WST assay
(§4) The dilution was used as a cell blank control (excluding the sample to be tested, which was added to the cells). In addition, a negative control (excluding the sample to be tested and cells) was prepared. In addition to the negative control wells, 100 μl of complete medium cell suspension was added to each well. The dilution was added to the negative control wells at 100 μl/well. 3 repeated wells were set in the experiment. […] 20 μl of CCK-8 detection solution (Shanghai Life iLab Biotech Co., LTD, Cat #D3100L4057) was added to each well, incubating at 37° C. for 2 hours in a CO2 incubator. The OD value was measured at A450 nm by a microplate reader.
(§5) The percentage of cell viability was calculated using the following formula: (O.D. test well-O.D. negative control well)/(O.D. cell control well-O.D. negative control well)×100
(§6) The IC50 was calculated using a non-linear regression data analysis method of Graphpad Prism 6.0 software ([…]).

Series [2] deals with Ba/F3 containing BCR-ABL mutation E255V/T315I (Homo sapiens, UniProt P00519, E255V/T315I, cells depend on it). The conditions noted are these: read-out: Antiproliferation Effect (IC50).
Source text: as §1, §2, §3, §4, §5, §6

The target of series [3] is Ba/F3 containing BCR-ABL mutation E255V (Homo sapiens, UniProt P00519, E255V, cells depend on it). The conditions noted are these: read-out: Antiproliferation Effect (IC50).
Source text: as §1, §2, §3, §4, §5, §6

Series [4] has as its target Ba/F3 containing BCR-ABL mutation T315M (Homo sapiens, UniProt P00519, T315M, cells depend on it). The conditions noted are these: read-out: Antiproliferation Effect (IC50).
Source text: as §1, §2, §3, §4, §5, §6

The target in series [5] is Ba/F3 containing BCR-ABL mutation E255K (Homo sapiens, UniProt P00519, E255K, cells depend on it). The conditions noted are these: read-out: Antiproliferation Effect (IC50).
Source text: as §1, §2, §3, §4, §5, §6

In series [6] the target is Ba/F3 containing BCR-ABL mutation F359V (Homo sapiens, UniProt P00519, F359V, cells depend on it). The note with it: read-out: Antiproliferation Effect (IC50).
Source text: as §1, §2, §3, §4, §5, §6

Series [7] addresses Ba/F3 containing BCR-ABL mutation T315I/F317L (Homo sapiens, UniProt P00519, T315I/F317L, cells depend on it). The note with it: read-out: Antiproliferation Effect (IC50).
Source text: as §1, §2, §3, §4, §5, §6

In series [8] the target is Ba/F3 containing BCR-ABL mutation Y253H/E255V (Homo sapiens, UniProt P00519, Y253H/E255V, cells depend on it). The note with it: read-out: Antiproliferation Effect (IC50).
Source text: as §1, §2, §3, §4, §5, §6

The target of series [9] is Ba/F3 containing BCR-ABL mutation T315I/F359V (Homo sapiens, UniProt P00519, T315I/F359V, cells depend on it). The conditions noted are these: read-out: Antiproliferation Effect (IC50).
Source text: as §1, §2, §3, §4, §5, §6

In series [10] the target is Ba/F3 containing BCR-ABL mutation Y253H (Homo sapiens, UniProt P00519, Y253H, cells depend on it). The note with it: read-out: Antiproliferation Effect (IC50).
Source text: as §1, §2, §3, §4, §5, §6

In series [11] the target is Ba/F3 containing BCR-ABL mutation F317L (Homo sapiens, UniProt P00519, F317L, cells depend on it). The conditions noted are these: read-out: Antiproliferation Effect (IC50).
Source text: as §1, §2, §3, §4, §5, §6

Series [12] addresses Ba/F3 containing BCR-ABL mutation Y253H/F359V (Homo sapiens, UniProt P00519, Y253H/F359V, cells depend on it). The note with it: read-out: Antiproliferation Effect (IC50).
Source text: as §1, §2, §3, §4, §5, §6

The target of series [13] is Ba/F3 containing BCR-ABL mutation Y253H/T315I (Homo sapiens, UniProt P00519, Y253H/T315I, cells depend on it). The conditions noted are these: read-out: Antiproliferation Effect (IC50).
Source text: as §1, §2, §3, §4, §5, §6

The target of series [14] is Ba/F3 containing BCR-ABL mutation T315I (Homo sapiens, UniProt P00519, T315I, cells depend on it). The note with it: read-out: Antiproliferation Effect (IC50).
Source text: as §1, §2, §3, §4, §5, §6

Series [15] in a line: Phase I study, pharmacokinetics (Example 1). In kind it is in vivo, human.
Series [16] concerns murine Ba/F3 cells expressing BCR-ABL^T315I. Kind of series: Subcutaneous tumors, isogenic Ba/F3 BCR-ABL T315I model. Format: in vivo.

Experimental findings from US12544370B2, “Methods for cancer therapy” (ASCENTAGE PHARMA (SUZHOU) CO., LTD., priority 2018, dated 2026) are described below.

For `Cc1ccc(C(=O)Nc2ccc(CN3CCN(C)CC3)c(C(F)(F)F)c2)cc1C#Cc1cnc2[nH]ncc2c1` [compound of formula (I-A), 3-(2-(1H-pyrazolo[3,4-b]pyridin-5-yl)ethynyl)-4-methyl-N-(4-((4-methylpiperazin-1-yl)methyl)-3-(trifluoromethyl)phenyl)-benzamide], the GI50 in [1] worked out at 0.274 ± 0.082 µM; in [2] it was 0.026 ± 0.011 µM; in series [3], 0.0135 ± 0.001 µM; in series [4], 0.217 ± 0.131 µM; in series [5], 0.022 ± 0.013 µM; in [6], 0.281 ± 0.187 µM. Besides, the GI50 in series [7] was 0.114 ± 0.009 µM; in series [8] it was 0.122 µM; in series [9], 0.007 ± 0.001 µM; in series [10], 0.007 ± 0.001 µM; in series [11], 0.008 ± 0.003 µM; in [12], 0.1 ± 0.081 µM. Also, the GI50 in [13] was found to be 0.111 ± 0.001 µM; in [14], 0.024 ± 0.01 µM. Moreover, in series [15] (oral, 1 mg to 60 mg), the “time at which peak concentration was reached” value lay within 2 to 8 h. The “dose proportionality of Cmax and AUC0-t” value in series [15] (single or multiple oral dose 1 to 60 mg) was “approximately dose proportional increase”. Besides, the “effect on subcutaneous tumors” value in [16] is given as “complete regression”.
